Laboratory results: ChEMBL document CHEMBL1201862, “PubChem BioAssay data set” (2004)
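Grown in 96-well plates, cells were treated for 48 hours with each compound at five concentrations. Insufficient inhibition: endpoint recorded as highest concentration tested. At the GI50, growth is halved.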 Activity calls are given as the source filed them. Rule as the data show it: active = GI50 up to about 1.1 µM and inactive = higher.

Key:
Assay in all cases: inhibition of tumour cell growth, NCI panel, 48 h
[1] = system: OVCAR-4
[2] = system: BT-549
[3] = system: 786-0
[4] = system: HL-60
[5] = system: A498
[6] = system: A549
[7] = system: DU-145
[8] = system: NCI-H522
[9] = system: RPMI-8226
[10] = system: OVCAR-3
[11] = system: T47D
[12] = system: SNB-75
[13] = system: LOX IMVI
[14] = system: SF-295
[15] = system: HCT-15
[16] = system: HCT-116
[17] = system: EKVX
[18] = system: Malme-3M
[19] = system: MCF7
[20] = system: PC-3
[21] = system: NCI-H23
[22] = system: SK-MEL-5
[23] = system: UACC-257
[24] = system: K562
[25] = system: HOP-62
[26] = system: SNB-19
[27] = system: KM12
[28] = system: UO-31
[29] = system: MOLT-4
[30] = system: SK-MEL-2
[31] = system: MDA-MB-231
[32] = system: NCI-H460
[33] = system: M14
[34] = system: TK-10
[35] = system: OVCAR-8
[36] = system: SK-OV-3
[37] = system: OVCAR-5
[38] = system: HOP-92
[39] = system: Hs-578T
[40] = system: MDA-MB-435
[41] = system: SN12C
[42] = system: RXF 393
[43] = system: CCRF-CEM
[44] = system: IGROV-1
[45] = system: HT-29
[46] = system: HCC 2998
[47] = system: U-251
[48] = system: NCI-H226
[49] = system: SK-MEL-28
[50] = system: SF-539
[51] = system: SW-620
[52] = system: MDA-N
[53] = system: CAKI-1
[54] = system: SF-268
[55] = system: NCI/ADR-RES
[56] = system: SR
[57] = system: COLO 205
[58] = system: ACHN
[59] = system: UACC-62

Measured: GI50

COC(=O)c1cc(C)ccc1CC(Cc1cccc(C)c1)C(=O)OC (centres undefined)
inactive: [1] > 100 µM | [2] > 100 µM | [3] > 100 µM | [4] 34.7 µM | [5] > 100 µM | [6] > 100 µM | [7] 92.9 µM | [8] 74.6 µM | [9] 29.6 µM | [10] > 100 µM | [11] > 100 µM | [12] 39.5 µM | [13] > 100 µM | [14] > 100 µM | [16] 80.7 µM | [17] 59.2 µM | [18] > 100 µM | [19] > 100 µM | [20] > 100 µM | [21] 38.5 µM | [22] 34.8 µM | [23] > 100 µM | [24] 45.7 µM | [25] > 100 µM | [26] > 100 µM | [27] > 100 µM | [28] > 100 µM | [29] 23.4 µM | [30] 47.3 µM | [31] > 100 µM | [32] > 100 µM | [33] > 100 µM | [34] > 100 µM | [35] > 100 µM | [36] 4.06 µM | [37] 17.3 µM | [38] 25.8 µM | [39] > 100 µM | [40] > 100 µM | [41] > 100 µM | [42] 29.2 µM | [43] 46.2 µM | [44] > 100 µM | [45] 50.6 µM | [46] > 100 µM | [47] > 100 µM | [48] > 100 µM | [49] > 100 µM | [50] > 100 µM | [51] > 100 µM | [52] > 100 µM | [53] > 100 µM | [54] 13.6 µM | [55] 95.9 µM | [56] 38.4 µM | [57] > 100 µM | [58] > 100 µM
> 100 µM: [15]

O=c1[nH]nc(Cc2ccc(Cl)cc2)n1/N=C\CC/C=N\n1c(Cc2ccc(Cl)cc2)n[nH]c1=O
35.2 µM: [15]
inactive: [1] > 81.3 µM | [2] 12.2 µM | [3] 18.5 µM | [4] > 24.2 µM | [5] > 69.5 µM | [6] > 100 µM | [7] > 93.1 µM | [8] 25.1 µM | [9] > 33.3 µM | [10] > 100 µM | [11] 20 µM | [12] 7.96 µM | [13] 13.6 µM | [14] 24.4 µM | [16] 27.2 µM | [17] 21.3 µM | [18] 24.3 µM | [19] 21.6 µM | [20] > 51.9 µM | [21] 32.3 µM | [22] 47.3 µM | [23] 50.9 µM | [24] > 88.7 µM | [25] 8.83 µM | [26] 32.9 µM | [27] > 100 µM | [28] > 100 µM | [29] > 24.1 µM | [30] 29.8 µM | [31] 25.8 µM | [32] > 100 µM | [33] 32.8 µM | [34] > 100 µM | [35] 14 µM | [36] 31.5 µM | [37] > 100 µM | [38] > 55.5 µM | [39] 11.4 µM | [40] > 53.6 µM | [41] 59.2 µM | [42] 15.1 µM | [59] 10.9 µM | [44] 9.93 µM | [45] > 26.2 µM | [46] > 100 µM | [47] 16.4 µM | [48] 18.4 µM | [49] 23.6 µM | [50] 8.49 µM | [51] > 62.2 µM | [52] > 50.9 µM | [53] > 56 µM | [54] 13.5 µM | [55] 22.2 µM | [56] 3.1 µM | [57] > 100 µM | [58] 56 µM

CCN(CC)c1c(N(CC)CC)c(=O)c1=O
3.67 µM: [15]
inactive: [1] 18.9 µM | [2] 19.1 µM | [3] 5.35 µM | [4] 2.23 µM | [5] 22.6 µM | [6] 22.5 µM | [7] 9.31 µM | [8] 2.14 µM | [9] 1.88 µM | [10] 9.71 µM | [11] 3.18 µM | [12] 30.3 µM | [13] 11.8 µM | [14] > 88.9 µM | [16] 8.07 µM | [17] 14.9 µM | [18] 3.25 µM | [19] 11.2 µM | [20] 17.9 µM | [21] 10.6 µM | [22] 17.4 µM | [23] 9.48 µM | [24] 6.12 µM | [25] 29.9 µM | [26] > 63.8 µM | [27] 22.6 µM | [28] 5.32 µM | [29] 3.1 µM | [30] 22.5 µM | [31] 7.55 µM | [32] 39.5 µM | [33] 16.7 µM | [34] 2.82 µM | [35] 10.3 µM | [36] > 100 µM | [37] 18 µM | [38] 3.94 µM | [39] 21.7 µM | [40] 20.7 µM | [41] 9.1 µM | [42] 11.3 µM | [43] 3.53 µM | [59] 18.2 µM | [44] 2.81 µM | [45] 2.42 µM | [46] 20.3 µM | [47] 22.9 µM | [48] 17.2 µM | [49] 17.4 µM | [50] 8.05 µM | [51] 4.16 µM | [52] 16.3 µM | [53] 4.27 µM | [54] 26.1 µM | [55] 24.4 µM | [56] 24.8 µM | [57] 2.63 µM | [58] 3.18 µM

CN(C)CC1CCCc2ccccc2C1=O (centres undefined)
inactive: [2] 5.06 µM | [3] 1.47 µM | [4] 2.66 µM | [5] 19.5 µM | [6] 20.3 µM | [7] 6.1 µM | [10] 1.82 µM | [11] 7.73 µM | [12] 41.8 µM | [13] 2.16 µM | [14] 17.3 µM | [16] 1.85 µM | [17] 1.85 µM | [18] 1.77 µM | [20] 1.57 µM | [21] 6.41 µM | [22] 4.4 µM | [23] 6.1 µM | [25] 16.6 µM | [26] 13 µM | [27] 1.98 µM | [28] 1.9 µM | [30] 2.02 µM | [31] 5.07 µM | [32] 19.6 µM | [33] 1.85 µM | [34] 3.83 µM | [35] 2.13 µM | [36] 18.3 µM | [37] 17.5 µM | [38] 16 µM | [39] 3.93 µM | [41] 7.4 µM | [42] 6.55 µM | [59] 2.31 µM | [44] 2.06 µM | [45] 1.82 µM | [46] 6.31 µM | [47] 1.6 µM | [48] 21.8 µM | [49] 6.03 µM | [50] 4.79 µM | [52] 1.58 µM | [53] 1.93 µM | [54] 2.21 µM | [55] 3.32 µM | [57] 5.14 µM | [58] 1.75 µM
active: [1] 0.839 µM | [8] 0.16 µM | [9] 0.0267 µM | [19] 0.231 µM | [24] 0.323 µM | [29] 0.269 µM | [40] 0.897 µM | [43] 0.107 µM | [51] 0.54 µM | [56] 0.271 µM
1.79 µM: [15]
